Laboratory results from patent US8389551B2, “Optical enantiomers of phenyramidol and process for chiral synthesis” (Fermenta Biotech (UK) Limited, priority 2006, dated 2013).
Marks after values point to notes of the source that are not given here.

What was measured:
Assay type in all cases: in vivo
[1] = test system: swiss albino mice; assay: Analgesic activity, acetic acid induced writhing method
Method: The objective of the study was to evaluate the analgesic activity of the tested formulations of the compounds of the present invention. The test was conducted in Swiss albino mice using acetic acid induced writhing method. A total of 78 pre-screened mice (showing writhing response within 10 minutes*) were divided into 6 groups of 13 animals (6 males+7 females) each. The animals showing no writhing response within 10 mins were excluded. Diclofenac and pentazocine were used as positive controls. The formulations were given orally to the different groups of animals and the number of writhes counted for a period of 15 minutes, after the onset of writhes. If the onset of writhes occurred 30 after 10 minutes the number of writhes was recorded as V. The time of onset of writhes was recorded for each animal.
The control group received 1% gum acacia. The Groups 2, 3, and 4 received the formulations viz: Phen 2; Phen 3 and Phen 4 respectively. Diclofenac and pentazocine were used as positive control and given to groups 5 and 6 respectively. Diclofenac, a potent analgesic & anti-inflammatory agent; and 5 pentazocine an opoid analgesic were selected for comparative evaluation of test formulations. Both these drugs were administered to different groups of animals at the dose of 2 mg/kg. The group 1 (Phen 1) served as—Ve Control group in the study. Phen 5 (Diclofenac—2 mg/kg) and Positive Control: Phen 6 (Pentazocine 2 mg/kg) served as positive controls.
Human daily dose of 2400 mg (800 mg×3 times) was extrapolated to mice for Phen3 and human daily dose of 1200 mg (400 mg×3 times) was extrapolated to mice for Phen2 and Phen 4. The numbers of writhes observed are given below in Table 4 for each formulation.
Further, the evaluation of analgesic activity was carried out using variable dosage forms with different groups. A total of 100 animals (50 males+50 females) were selected randomly and distributed into ten main groups with 10 animals per group (5 M+5 F). Human daily dose of 2400 mg (800 mg×3 times) was extrapolated to mice for Phen 3 (Phenyramidol Racemic (Hydrochloride) and human daily dose of 1200 mg (400 mg×3 times), 1800 mg (400 mg×4.5 times), 2000 mg (400 mg×5 times) & 2400 mg (400 mg×6 times) was extrapolated to mice for Phen2 and Phen4 groups.
The control group 1 received 1% gum acacia and served as negative control group. Groups 2, 3, 4 & 5 received the formulation Phen2. Groups 6, 7, 8 & 9 received the formulation Phen 4 (Isomer 2) & Group 10 received the formulation Phen 3 (Racemic).
Further, one more experiment was done with phenyramidol hydrochloride to evaluate the analgesic activity at lesser dosage levels using acetic acid induced method. A total of 50 animals (25 males+25 females) were selected and randomly distributed into five main groups with 10 animals per group (5 M+5 F). 5 Human daily dose of 600 mg (400×1.5 times) & 1200 mg (800 mg×1.5 times) was extrapolated to mice for Phen 3 (Racemic) and human daily dose of 600 mg (400 mg×1.5 times) was extrapolated to mice for (−) Phenyramidol Hydrochloride & (+) Phenyramidol Hydrochloride and the results are discussed in Table 6.

[2] = test system: mice; assay: Central analgesic activity, tail flick analgesiometer
[3] = test system: rats; assay: Anti-arthritic activity, thickness of joint of right paw after injection of formalin
Method: The anti-arthritic activity was assessed using following time points after the injection of formalin 2 hrs, 4 hrs, 8 hrs, 24 hrs, 48 hrs and 72 hrs. The control group (group 1) received 1% gum acacia. The Groups 2, 3, and 4 received the formulations viz: Phen 2, Phen 3 and Phen 4 respectively. Diclofenac was used as positive control and given to group 5. Human daily dose of 2400 mg (800 mg×3 times) was extrapolated to rats for 5 (racemate) Phen 3 and human daily dose of 1200 mg (400 mg×3 times) was extrapolated to rats for (isomer 1) Phen 2 and (isomer 2) Phen 4. Diclofenac sodium 2 mg/Kg was used as reference product.
Initial or 0 hr thickness of the joint of right paw of each animal was recorded. The thickness of the joint was measured using Vernier calipers at different time intervals after the injection of formalin. These efficacy variables were assessed at six time points 2 hrs, 4 hrs, 8 hrs, 24 hrs, 48 hrs and 72 hrs for each and every animal.

[4] = test system: Wistar rats; assay: Anti-inflammatory activity, carrageenin induced paw edema (plethysmometer); conditions: for % Increase in Paw volume 1 HR: 1 HR after carrageenan, oral, racemate 2400 mg, isomers 1200 mg human daily dose extrapolated to rats, Indomethacin 15 mg/kg, diclofenac 10 mg/kg; for % Increase in Paw volume 2 HR: 2 HR after carrageenan; for % Increase in Paw volume 2 HR / % Increase in Paw volume 3 HR / % Increase in Paw volume 5 HR: doses as E46; for % Increase in Paw volume 3 HR: 3 HR after carrageenan; for % Increase in Paw volume 5 HR: 5 HR after carrageenan
Method: Further, the investigations were carried out to determine the anti-inflammatory activities of the molecule of the present invention. Wistar rats weighing between 160-210 gm were divided into 6 groups of 10 animals each. Group I served as control (Placebo) and receive CMC and Group II & III received anti-inflammatory control (positive control) (Diclofenac & Indomethacin respectively). Group IV to VI were treated orally with test formulations. After 15 min. of drug administration, inflammation was induced by injecting 0.1 ml of freshly prepared 1% carrageenin (in normal saline) into the left hind paw of the rat. The paw volume of the […] was measured by measuring the displace fluid in other hand of plethysmometer.
Indomethacin (15 mg/kg and declofenac (10 mg/kg) was used as reference product. Percent increased in rat paw edema was measured and compare to normal control at each time intervals.
The antiinflammatory activity was assessed plethysmographically using following time points after the administration of carrageenan, 1 hr, 2 hrs, 3 hrs and 5 hrs.

[5] = Table 4, oral, writhes counted 15 minutes, Phen3 human daily dose 2400 mg, Phen2 and Phen 4 1200 mg extrapolated to mice, Diclofenac and Pentazocine 2 mg/kg
[6] = Table 6, dose 600 mg (human daily dose extrapolated to mice), mean ± SD, n = 10
[7] = experiment of Table 6, lesser dosage levels

For CC(C)=CCN1CCC2(C)c3cc(O)ccc3CC1C2C (stereo not shown) [Pentazocine], the “Average no. of writhes” value [1, 5] was 10.62 ± 9.47*, the “Tail Flick Reaction Time (Sec.) 1 hr.” value ([2]; mouse, in vivo) was 3.0 ± 0.7055 s and the “Tail Flick Reaction Time (Sec.) 4 hr.” value ([2]; mouse, in vivo) was 3.0 ± 0.7055 s.
OC(CNc1ccccn1)c1ccccc1 (racemic) [Phen 3, 2-(β-hydroxyphenethylamino) pyridine, reference compound] was tested, and the “Thickness of Joint (in cm) 0 hr” value ([3]; 0 hr (initial), Phen 3 2400 mg, Phen 2 and Phen 4 1200 mg human daily dose extrapolated to rats, Diclofenac sodium 2 mg/Kg) was 0.48 ± 0.04 cm, the “Thickness of Joint (in cm) 2 hr” value ([3]; 2 hr after formalin, Phen 3 2400 mg, Phen 2 and Phen 4 1200 mg human daily dose extrapolated to rats, Diclofenac sodium 2 mg/Kg) was 0.59 ± 0.03 cm and the “Thickness of Joint (in cm) 4 hr” value ([3]; 4 hr after formalin, doses as E38) was 0.59 ± 0.04 cm. For the same compound, the “Thickness of Joint (in cm) 8 hr” value ([3]; 8 hr after formalin, doses as E38) was 0.62 ± 0.06 cm, the “Thickness of Joint (in cm) 24 hr” value ([3]; 24 hr after formalin, doses as E38) was 0.52 ± 0.05 cm and the “Thickness of Joint (in cm) 48 hr” value ([3]; 48 hr after formalin, doses as E38) was 0.54 ± 0.05 cm. The “Thickness of Joint (in cm) 72 hr” value ([3]; 72 hr after formalin, doses as E38) was 0.55 ± 0.05 cm, the “Average no. of writhes” value [1, 5] was 3.54 ± 3.95* and the “Average no. of writhes” value ([1]; Table 5, dose 2400 mg (human daily dose extrapolated to mice), mean ± SD, n = 10) was 4.20 ± 3.77*. The “Average no. of writhes” value [1, 6] was 5.90 ± 6.14*, the “Average no. of writhes” value ([1]; Table 6, dose 1200 mg (human daily dose extrapolated to mice), mean ± SD, n = 10) was 1.50 ± 2.59* and the “analgesic activity by decrease in the number of writhes induced by acetic acid” value (from here on “analgesic activity by decrease”) ([1]; experiment of Table 4) was “significant analgesic activity”. The “analgesic activity by decrease” value ([1]; experiment of Table 5 (variable doses)) was “significant analgesic activity”, the “analgesic activity by decrease” value [1, 7] was “significant analgesic activity” and the “% Increase in Paw volume 1 HR” value [4] was 24.15 ± 7.27%. For the same compound, the “% Increase in Paw volume 2 HR” value [4] was 44.73 ± 6.56%, the “% Increase in Paw volume 3 HR” value [4] was 61.40 ± 18.21% and the “% Increase in Paw volume 5 HR” value [4] was 47.13 ± 19.14%. For the same compound, the “Tail Flick Reaction Time (Sec.) 1 hr.” value ([2]; 1 hr. after dose, human daily dose 2400 mg or 1200 mg extrapolated to mice, cut-off 10-12 seconds) was 4.86 ± 3.023 s, the “Tail Flick Reaction Time (Sec.) 4 hr.” value ([2]; 4 hr. after dose, human daily dose 2400 mg or 1200 mg extrapolated to mice, cut-off 10-12 seconds) was 5.055 ± 2.735 s and the “analgesic activity (tail flick latency compared to control)” value ([2]; at 4 hr after dose administration) was “significant analgesic activity”.
COc1ccc2c(c1)c(CC(=O)O)c(C)n2C(=O)c1ccc(Cl)cc1 [Indomethacin] was tested, and the “% Increase in Paw volume 1 HR” value [4] was 18.58 ± 11.38%, the “% Increase in Paw volume 2 HR” value [4] was 31.27 ± 4.75 % and the “% Increase in Paw volume 3 HR” value [4] was 41.42 ± 12.54 %. For the same compound, the “% Increase in Paw volume 5 HR” value [4] was 28.86 ± 8.22 %.
Cl.O[C@@H](CNc1ccccn1)c1ccccc1 [(−) Phenyramidol Hydrochloride, (R)-Phenyramidol Hydrochloride Salt] was tested, and the “Average no. of writhes” value [1, 6] was 3.20 ± 4.16*, the “analgesic activity (summary statement)” value ([1]; confirmed by an acetic acid induced writhing method) was “enhanced analgesic activity” and the “analgesic activity by decrease” value [1, 7] was “significant analgesic activity”.
